Source: patent US11179433B2, “Mouth freshener” (ARI HEALTHCARE PVT. LTD., priority 2014, dated 2021)

Assays:
Assay type in all cases: cell-based
Settings in all cases: control, concentration not given, 100 μl per well
[1] = system: Candida albicans; assay: Anti-fungal activity, agar well diffusion (zone of inhibition)
Procedure: (§1) The anti-microbial activity and the anti-fungal activity of the mouth freshener composition of the present disclosure was determined by testing it on Escherichia coli, Staphylococcus aureus and Candida albicans as the test microorganisms in comparison with a product presently available in the market (herein forward referred to as Product X), methanol and a standard drug i.e. Chlorhexidine. Escherichia coli, Staphylococcus aureus were grown in Luria-Bertani broth (LB broth) and Candida albicans was grown in Potato Dextrose broth (PD broth) until the growth reached approximately 10^6 cfu (colony forming units) per ml culture was attained. 100 μl of this culture was used for the antimicrobial assay. The 1-4% solution of powder extract was prepared by dissolving the extract in methanol as a solvent and all these solutions were store at 4° C. temperature till further use. Mueller-Hinton (HiMedia) agar plates were used to carry out the testing of the anti-microbial activity and Potato dextrose (Himedia) agar plates were used to carry out the testing of the anti-fungal activity of the mouth freshener composition. The dried surface of a Mueller-Hinton agar plate was inoculated by spreading 100 μl culture suspension on the agar surface. […]

[2] = system: Staphylococcus aureus; assay: Anti-microbial activity, agar well diffusion (zone of inhibition)
Procedure: as §1

[3] = system: Escherichia coli; assay: as above
Procedure: as §1

In the case of `[H]/N=C(\N/C(=N/[H])NCCCCCCNC(=N)NC(=N)Nc1ccc(Cl)cc1)Nc1ccc(Cl)cc1` [Chlorhexidine], the Zone of inhibition [1] is reported as 19 mm, the Zone of inhibition [2] is reported as 18 mm and the Zone of inhibition [3] is reported as 15 mm.
